Results: ChEMBL document CHEMBL2057207, “Fluorometric detection of adenine in target DNA by exciplex formation with fluorescent 8-arylethynylated deoxyguanosine” (Bioorg Med Chem Lett, 2012)
The source made the active and inactive calls. The rule behind the calls is not given here.

How the values were obtained:
Format in all cases: nucleic-acid assay
Nucleic Acid [1] = assay: Binding affinity to DNA 3'-GCG TTA G ATT GCG-5' assessed as melting temperature
Nucleic Acid [2] = assay: Binding affinity to DNA 3'-GCG TTA C ATT GCG-5' assessed as melting temperature
Nucleic Acid [3] = assay: Binding affinity to DNA 3'-GCG TTA C ATT GCG-5' assessed as change in fluorescence emission at 2.5 uM by UV-Vis spectrophotometric analysis at pH 7
Nucleic Acid [4] = assay: Binding affinity to DNA 3'-GCG TTA T ATT GCG-5' assessed as change in fluorescence emission at 2.5 uM by UV-Vis spectrophotometric analysis at pH 7
Nucleic Acid [5] = assay: Binding affinity to DNA 3'-GCG TTA A ATT GCG-5' assessed as melting temperature
Nucleic Acid [6] = assay: Binding affinity to DNA 3'-GCG TTA A ATT GCG-5' assessed as change in fluorescence emission at 2.5 uM by UV-Vis spectrophotometric analysis at pH 7
Nucleic Acid [7] = assay: Binding affinity to DNA 3'-GCG TTA T ATT GCG-5' assessed as melting temperature
Nucleic Acid [8] = assay: Binding affinity to DNA 3'-GCG TTA G ATT GCG-5' assessed as change in fluorescence emission at 2.5 uM by UV-Vis spectrophotometric analysis at pH 7
Nucleic Acid [9] = assay: Binding affinity to DNA 3'-GCG TTA C ATT GCG-5' assessed as change in fluorescence emission at 2.5 uM by UV transilluminator analysis
Nucleic Acid [10] = assay: Binding affinity to DNA 3'-GCG TTA G ATT GCG-5' assessed as change in fluorescence emission at 2.5 uM by UV transilluminator analysis
Nucleic Acid [11] = assay: Binding affinity to DNA 3'-GCG TTA A ATT GCG-5' assessed as change in fluorescence emission at 2.5 uM by UV transilluminator analysis
Nucleic Acid [12] = assay: Binding affinity to DNA 3'-GCG TTA T ATT GCG-5' assessed as change in fluorescence emission at 2.5 uM by UV transilluminator analysis

| Tm (Nucleic Acid [1]) | Tm (Nucleic Acid [2]) | Activity (Nucleic Acid [3]) | Activity (Nucleic Acid [4]) | Tm (Nucleic Acid [5]) | Activity (Nucleic Acid [6]) | Tm (Nucleic Acid [7]) | Activity (Nucleic Acid [8]) | Activity (Nucleic Acid [9]) | Activity (Nucleic Acid [10]) | Activity (Nucleic Acid [11]) | Activity (Nucleic Acid [12]) | Structure (SMILES) |
| --- | --- | --- | --- | --- | --- | --- | --- | --- | --- | --- | --- | --- |
| 49.6 °C | 49.4 °C | inactive | inactive | 49.2 °C | Active | 46.7 °C | inactive |  |  |  |  | COc1ccc(C#Cc2nc3c(=O)[nH]c(N)nc3n2[C@H]2C[C@H](OP(=O)(O)OC[C@H]3O[C@@H](n4cc(C)c(=O)[nH]c4=O)C[C@@H]3OP(=O)(O)OC[C@H]3O[C@@H](n4cnc5c(N)ncnc54)C[C@@H]3OP(=O)(O)OC[C@H]3O[C@@H](n4cnc5c(N)ncnc54)C[C@@H]3OP(=O)(O)OC[C@H]3O[C@@H](n4ccc(N)nc4=O)C[C@@H]3OP(=O)(O)OC[C@H]3O[C@@H](n4cnc5c(=O)[nH]c(N)nc54)C[C@@H]3OP(=O)(O)OC[C@H]3O[C@@H](n4ccc(N)nc4=O)C[C@@H]3O)[C@@H](COP(=O)(O)O[C@H]3C[C@H](n4cc(C)c(=O)[nH]c4=O)O[C@@H]3COP(=O)(O)O[C@H]3C[C@H](n4cnc5c(N)ncnc54)O[C@@H]3COP(=O)(O)O[C@H]3C[C@H](n4cnc5c(N)ncnc54)O[C@@H]3COP(=O)(O)O[C@H]3C[C@H](n4ccc(N)nc4=O)O[C@@H]3COP(=O)(O)O[C@H]3C[C@H](n4cnc5c(=O)[nH]c(N)nc54)O[C@@H]3COP(=O)(O)O[C@H]3C[C@H](n4ccc(N)nc4=O)O[C@@H]3CO)O2)c2ccccc12 |
| 46.2 °C | 45.5 °C | inactive | inactive | 52.2 °C | Active | 42.8 °C | inactive |  |  |  |  | COc1cc(OC)c(C#Cc2nc3c(=O)[nH]c(N)nc3n2[C@H]2C[C@H](OP(=O)(O)OC[C@H]3O[C@@H](n4cc(C)c(=O)[nH]c4=O)C[C@@H]3OP(=O)(O)OC[C@H]3O[C@@H](n4cnc5c(N)ncnc54)C[C@@H]3OP(=O)(O)OC[C@H]3O[C@@H](n4cnc5c(N)ncnc54)C[C@@H]3OP(=O)(O)OC[C@H]3O[C@@H](n4ccc(N)nc4=O)C[C@@H]3OP(=O)(O)OC[C@H]3O[C@@H](n4cnc5c(=O)[nH]c(N)nc54)C[C@@H]3OP(=O)(O)OC[C@H]3O[C@@H](n4ccc(N)nc4=O)C[C@@H]3O)[C@@H](COP(=O)(O)O[C@H]3C[C@H](n4cc(C)c(=O)[nH]c4=O)O[C@@H]3COP(=O)(O)O[C@H]3C[C@H](n4cnc5c(N)ncnc54)O[C@@H]3COP(=O)(O)O[C@H]3C[C@H](n4cnc5c(N)ncnc54)O[C@@H]3COP(=O)(O)O[C@H]3C[C@H](n4ccc(N)nc4=O)O[C@@H]3COP(=O)(O)O[C@H]3C[C@H](n4cnc5c(=O)[nH]c(N)nc54)O[C@@H]3COP(=O)(O)O[C@H]3C[C@H](n4ccc(N)nc4=O)O[C@@H]3CO)O2)c(OC)c1 |
|  |  | inactive | inactive |  | inactive |  | inactive |  |  |  |  | Cc1cn([C@H]2C[C@H](OP(=O)(O)OC[C@H]3O[C@@H](n4c(C#Cc5ccccc5)nc5c(=O)[nH]c(N)nc54)C[C@@H]3OP(=O)(O)OC[C@H]3O[C@@H](n4cc(C)c(=O)[nH]c4=O)C[C@@H]3OP(=O)(O)OC[C@H]3O[C@@H](n4cnc5c(N)ncnc54)C[C@@H]3OP(=O)(O)OC[C@H]3O[C@@H](n4cnc5c(N)ncnc54)C[C@@H]3OP(=O)(O)OC[C@H]3O[C@@H](n4ccc(N)nc4=O)C[C@@H]3OP(=O)(O)OC[C@H]3O[C@@H](n4cnc5c(=O)[nH]c(N)nc54)C[C@@H]3OP(=O)(O)OC[C@H]3O[C@@H](n4ccc(N)nc4=O)C[C@@H]3O)[C@@H](COP(=O)(O)O[C@H]3C[C@H](n4cnc5c(N)ncnc54)O[C@@H]3COP(=O)(O)O[C@H]3C[C@H](n4cnc5c(N)ncnc54)O[C@@H]3COP(=O)(O)O[C@H]3C[C@H](n4ccc(N)nc4=O)O[C@@H]3COP(=O)(O)O[C@H]3C[C@H](n4cnc5c(=O)[nH]c(N)nc54)O[C@@H]3COP(=O)(O)O[C@H]3C[C@H](n4ccc(N)nc4=O)O[C@@H]3CO)O2)c(=O)[nH]c1=O |
| 49.8 °C | 50.5 °C | inactive | inactive | 49.7 °C | Active | 45.1 °C | inactive | Active | Active | Active | Active | COc1ccc(C#Cc2nc3c(=O)[nH]c(N)nc3n2[C@H]2C[C@H](OP(=O)(O)OC[C@H]3O[C@@H](n4cc(C)c(=O)[nH]c4=O)C[C@@H]3OP(=O)(O)OC[C@H]3O[C@@H](n4cnc5c(N)ncnc54)C[C@@H]3OP(=O)(O)OC[C@H]3O[C@@H](n4cnc5c(N)ncnc54)C[C@@H]3OP(=O)(O)OC[C@H]3O[C@@H](n4ccc(N)nc4=O)C[C@@H]3OP(=O)(O)OC[C@H]3O[C@@H](n4cnc5c(=O)[nH]c(N)nc54)C[C@@H]3OP(=O)(O)OC[C@H]3O[C@@H](n4ccc(N)nc4=O)C[C@@H]3O)[C@@H](COP(=O)(O)O[C@H]3C[C@H](n4cc(C)c(=O)[nH]c4=O)O[C@@H]3COP(=O)(O)O[C@H]3C[C@H](n4cnc5c(N)ncnc54)O[C@@H]3COP(=O)(O)O[C@H]3C[C@H](n4cnc5c(N)ncnc54)O[C@@H]3COP(=O)(O)O[C@H]3C[C@H](n4ccc(N)nc4=O)O[C@@H]3COP(=O)(O)O[C@H]3C[C@H](n4cnc5c(=O)[nH]c(N)nc54)O[C@@H]3COP(=O)(O)O[C@H]3C[C@H](n4ccc(N)nc4=O)O[C@@H]3CO)O2)cc1 |
